Experimental data published in ChEMBL document CHEMBL1909046, “DrugMatrix in vitro pharmacology data”.

Molecular target: T1, Cytochrome P450 1A2 (Homo sapiens, UniProt P05177); also: in other assays of this panel Not Active means under 50% inhibition at 10 µM
T1 sequence (P05177 whole entry): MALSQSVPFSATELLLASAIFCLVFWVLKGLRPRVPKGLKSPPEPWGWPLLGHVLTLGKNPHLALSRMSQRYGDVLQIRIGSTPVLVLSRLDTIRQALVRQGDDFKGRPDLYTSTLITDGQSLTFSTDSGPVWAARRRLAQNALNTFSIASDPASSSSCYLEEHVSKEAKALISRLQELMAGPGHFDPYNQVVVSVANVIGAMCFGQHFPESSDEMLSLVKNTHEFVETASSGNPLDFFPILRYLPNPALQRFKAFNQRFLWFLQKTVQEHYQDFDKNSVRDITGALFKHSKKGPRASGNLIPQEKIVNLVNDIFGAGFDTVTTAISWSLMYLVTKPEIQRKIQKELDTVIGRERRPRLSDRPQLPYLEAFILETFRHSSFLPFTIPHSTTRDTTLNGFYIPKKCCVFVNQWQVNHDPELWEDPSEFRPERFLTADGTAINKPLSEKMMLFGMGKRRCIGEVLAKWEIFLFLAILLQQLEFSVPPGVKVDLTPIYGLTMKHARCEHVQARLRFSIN
Settings: not given

Compound	IC50 [µM]
C[S+]([O-])c1ccc(-c2nc(-c3ccncc3)c(-c3ccc(F)cc3)[nH]2)cc1 (centres undefined) [SB-203580]	2

Molecular target: Cytochrome P450 2C9 (Homo sapiens, UniProt P11712); also: in other assays of this panel Not Active means under 50% inhibition at 10 µM
Sequence (P11712 whole entry): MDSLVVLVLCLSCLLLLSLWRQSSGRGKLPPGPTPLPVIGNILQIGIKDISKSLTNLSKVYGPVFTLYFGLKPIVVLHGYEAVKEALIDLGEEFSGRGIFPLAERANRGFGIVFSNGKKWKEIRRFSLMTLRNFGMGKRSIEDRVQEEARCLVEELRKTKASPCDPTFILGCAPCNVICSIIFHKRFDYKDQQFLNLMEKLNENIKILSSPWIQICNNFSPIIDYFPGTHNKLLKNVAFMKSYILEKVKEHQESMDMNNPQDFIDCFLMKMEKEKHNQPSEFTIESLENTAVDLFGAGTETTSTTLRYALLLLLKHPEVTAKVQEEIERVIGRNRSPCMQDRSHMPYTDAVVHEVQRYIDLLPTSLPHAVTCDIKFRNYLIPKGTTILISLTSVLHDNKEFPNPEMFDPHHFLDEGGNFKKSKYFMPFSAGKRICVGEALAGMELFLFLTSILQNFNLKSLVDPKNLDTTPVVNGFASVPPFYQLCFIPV
Settings: not given

Compound	IC50 [µM]
Clc1ccc(COC(Cn2ccnc2)c2ccc(Cl)cc2Cl)c(Cl)c1 (centres undefined) [MICONAZOLE]	0.2
C[S+]([O-])c1ccc(-c2nc(-c3ccncc3)c(-c3ccc(F)cc3)[nH]2)cc1 (centres undefined) [SB-203580]	1

Molecular target: Cytochrome P450 2D6 (Homo sapiens, UniProt P10635); also: in other assays of this panel Not Active means under 50% inhibition at 10 µM
Sequence (P10635 whole entry): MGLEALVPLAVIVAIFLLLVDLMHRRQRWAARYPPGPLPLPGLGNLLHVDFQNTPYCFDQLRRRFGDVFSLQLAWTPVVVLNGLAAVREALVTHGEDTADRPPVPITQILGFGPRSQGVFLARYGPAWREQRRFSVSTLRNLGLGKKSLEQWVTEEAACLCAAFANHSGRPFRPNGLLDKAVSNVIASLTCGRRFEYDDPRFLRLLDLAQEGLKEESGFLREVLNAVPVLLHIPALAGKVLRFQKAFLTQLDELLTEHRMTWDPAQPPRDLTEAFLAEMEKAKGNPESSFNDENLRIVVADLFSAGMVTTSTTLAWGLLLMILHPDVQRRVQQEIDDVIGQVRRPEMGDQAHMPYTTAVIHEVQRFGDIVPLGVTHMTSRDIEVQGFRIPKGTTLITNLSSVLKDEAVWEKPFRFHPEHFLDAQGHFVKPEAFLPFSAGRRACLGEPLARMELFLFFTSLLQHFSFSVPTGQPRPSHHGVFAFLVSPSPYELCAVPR
Settings: not given

Compound	IC50 [µM]
Clc1ccc(COC(Cn2ccnc2)c2ccc(Cl)cc2Cl)c(Cl)c1 (centres undefined) [MICONAZOLE]	1
C[S+]([O-])c1ccc(-c2nc(-c3ccncc3)c(-c3ccc(F)cc3)[nH]2)cc1 (centres undefined) [SB-203580]	2

Molecular target: T2, Androgen receptor (Rattus norvegicus, UniProt P15207)
T2 sequence (P15207 whole entry): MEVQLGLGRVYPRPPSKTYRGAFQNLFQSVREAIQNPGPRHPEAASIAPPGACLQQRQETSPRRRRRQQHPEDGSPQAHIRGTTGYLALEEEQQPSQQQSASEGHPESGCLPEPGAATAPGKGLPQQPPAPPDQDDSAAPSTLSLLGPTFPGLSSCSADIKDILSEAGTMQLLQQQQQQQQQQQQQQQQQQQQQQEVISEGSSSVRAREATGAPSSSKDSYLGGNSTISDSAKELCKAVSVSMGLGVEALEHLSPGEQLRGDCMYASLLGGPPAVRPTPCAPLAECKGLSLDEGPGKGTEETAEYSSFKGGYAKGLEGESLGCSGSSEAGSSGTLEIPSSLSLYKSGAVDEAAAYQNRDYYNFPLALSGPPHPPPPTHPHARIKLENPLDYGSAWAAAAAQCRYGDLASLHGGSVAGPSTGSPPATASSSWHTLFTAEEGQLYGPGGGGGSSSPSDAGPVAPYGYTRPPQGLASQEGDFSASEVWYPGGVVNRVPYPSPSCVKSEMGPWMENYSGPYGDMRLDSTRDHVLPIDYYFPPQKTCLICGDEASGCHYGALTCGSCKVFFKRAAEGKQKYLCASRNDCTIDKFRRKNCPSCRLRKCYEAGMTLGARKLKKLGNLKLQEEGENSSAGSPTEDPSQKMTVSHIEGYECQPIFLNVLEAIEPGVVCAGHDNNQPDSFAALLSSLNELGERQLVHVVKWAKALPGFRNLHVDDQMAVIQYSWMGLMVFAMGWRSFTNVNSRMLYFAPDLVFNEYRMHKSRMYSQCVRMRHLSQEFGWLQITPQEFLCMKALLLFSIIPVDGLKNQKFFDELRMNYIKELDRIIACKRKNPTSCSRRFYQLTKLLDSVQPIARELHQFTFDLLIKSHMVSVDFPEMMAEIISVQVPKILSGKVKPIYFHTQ
Settings: not given

Compound	IC50	Ki
O=C(O)COc1ccc(C(=O)c2cccs2)c(Cl)c1Cl	Not Active	–
Oc1ccc2c3c1O[C@H]1[C@@H](O)CC[C@@]4(O)[C@@H](C2)N(CC2CCC2)CC[C@]314 [NALBUPHINE]	Not Active	–
C[S+]([O-])c1ccc(-c2nc(-c3ccncc3)c(-c3ccc(F)cc3)[nH]2)cc1 (centres undefined) [SB-203580]	Not Active	–
CCCCCCCCNC(C)C(O)c1ccc(SC(C)C)cc1 (centres undefined) [SULOCTIDIL]	Not Active	–
Cc1ccc(C(=O)c2ccc(CC(=O)O)n2C)cc1 [TOLMETIN]	Not Active	–
TRANSPLATIN	Not Active	Not Active
ZIRCONIUM(IV) CHLORIDE	Not Active	Not Active

Molecular target: Sodium-dependent noradrenaline transporter (Homo sapiens, UniProt P23975)
Sequence (P23975 whole entry): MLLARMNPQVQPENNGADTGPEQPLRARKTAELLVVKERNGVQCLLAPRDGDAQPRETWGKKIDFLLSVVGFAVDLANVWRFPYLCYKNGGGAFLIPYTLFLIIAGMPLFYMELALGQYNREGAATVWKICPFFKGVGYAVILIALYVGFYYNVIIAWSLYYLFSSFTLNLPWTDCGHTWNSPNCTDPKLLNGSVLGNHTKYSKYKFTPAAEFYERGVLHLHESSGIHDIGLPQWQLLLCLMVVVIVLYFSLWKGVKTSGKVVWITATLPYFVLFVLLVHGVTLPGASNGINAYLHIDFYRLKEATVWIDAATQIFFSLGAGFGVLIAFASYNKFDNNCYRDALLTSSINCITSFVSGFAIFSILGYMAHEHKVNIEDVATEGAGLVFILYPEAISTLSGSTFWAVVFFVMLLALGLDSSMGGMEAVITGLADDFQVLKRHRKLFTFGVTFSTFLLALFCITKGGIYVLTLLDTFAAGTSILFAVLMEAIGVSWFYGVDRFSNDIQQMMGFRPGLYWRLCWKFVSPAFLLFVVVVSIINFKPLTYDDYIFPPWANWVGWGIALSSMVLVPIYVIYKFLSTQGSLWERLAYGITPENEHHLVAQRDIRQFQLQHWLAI
Assay: DRUGMATRIX: Norepinephrine Transporter radioligand binding (ligand: [125I] RTI-55)
Assay type: cell membranes, MDCK, Membrane
Settings: mdck; Not Active = under 50% inhibition at 10 µM

Compound	IC50	Ki
CCCCC(=O)N(Cc1ccc(-c2ccccc2-c2nnn[nH]2)cc1)[C@H](C(=O)O)C(C)C	Not Active	–
O=C(O)COc1ccc(C(=O)c2cccs2)c(Cl)c1Cl	Not Active	–
C[C@@](Cc1ccc(O)c(O)c1)(NN)C(=O)O.O [CARBIDOPA]	Not Active	–
O=C(O)CCCCC1CCSS1 (stereo not drawn) [LIPOIC ACID, ALPHA]	Not Active	–
Oc1ccc2c3c1O[C@H]1[C@@H](O)CC[C@@]4(O)[C@@H](C2)N(CC2CCC2)CC[C@]314 [NALBUPHINE]	Not Active	–
C[S+]([O-])c1ccc(-c2nc(-c3ccncc3)c(-c3ccc(F)cc3)[nH]2)cc1 (centres undefined) [SB-203580]	Not Active	–
Cc1ccc(C(=O)c2ccc(CC(=O)O)n2C)cc1 [TOLMETIN]	Not Active	–
TRANSPLATIN	Not Active	Not Active
ZIRCONIUM(IV) CHLORIDE	Not Active	Not Active

Molecular target: T2, Androgen receptor
Settings: not given
Remark: another data set of the same source

Compound	IC50 [µM]	Ki [µM]
Clc1ccc(COC(Cn2ccnc2)c2ccc(Cl)cc2Cl)c(Cl)c1 (centres undefined) [MICONAZOLE]	7.09	4.73

Molecular target: Cytochrome P450 2C19 (Homo sapiens, UniProt P33261); also: in other assays of this panel Not Active means under 50% inhibition at 10 µM
Sequence (P33261 whole entry): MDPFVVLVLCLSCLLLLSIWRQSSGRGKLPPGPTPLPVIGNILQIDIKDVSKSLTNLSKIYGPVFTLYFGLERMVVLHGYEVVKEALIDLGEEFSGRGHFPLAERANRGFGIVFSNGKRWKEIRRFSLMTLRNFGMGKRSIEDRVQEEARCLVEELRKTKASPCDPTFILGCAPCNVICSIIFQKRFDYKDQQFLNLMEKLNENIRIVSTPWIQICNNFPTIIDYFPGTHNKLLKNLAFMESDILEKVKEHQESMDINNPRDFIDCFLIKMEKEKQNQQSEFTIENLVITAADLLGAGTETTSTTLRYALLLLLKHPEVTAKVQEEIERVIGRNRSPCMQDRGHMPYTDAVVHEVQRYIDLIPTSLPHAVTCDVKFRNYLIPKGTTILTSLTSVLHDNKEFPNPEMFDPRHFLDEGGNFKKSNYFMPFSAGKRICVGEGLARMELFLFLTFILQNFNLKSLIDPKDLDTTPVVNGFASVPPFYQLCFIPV
Settings: not given

Compound	IC50 [µM]
C[S+]([O-])c1ccc(-c2nc(-c3ccncc3)c(-c3ccc(F)cc3)[nH]2)cc1 (centres undefined) [SB-203580]	0.8

System: not listed separately
Assay: DRUGMATRIX: Glutamate, NMDA, Agonism radioligand binding (ligand: [3H] CGP-39653)
Assay type: cell membranes, Rattus norvegicus, Wistar, Cerebral cortex, Membrane
Settings: Not Active = under 50% inhibition at 10 µM

Compound	IC50	Ki
CCCCC(=O)N(Cc1ccc(-c2ccccc2-c2nnn[nH]2)cc1)[C@H](C(=O)O)C(C)C	Not Active	Not Active
O=C(O)COc1ccc(C(=O)c2cccs2)c(Cl)c1Cl	Not Active	Not Active
C[C@@](Cc1ccc(O)c(O)c1)(NN)C(=O)O.O [CARBIDOPA]	Not Active	Not Active
O=C(O)CCCCC1CCSS1 (stereo not drawn) [LIPOIC ACID, ALPHA]	Not Active	Not Active
CCCCCCCCNC(C)C(O)c1ccc(SC(C)C)cc1 (centres undefined) [SULOCTIDIL]	Not Active	Not Active
Cc1ccc(C(=O)c2ccc(CC(=O)O)n2C)cc1 [TOLMETIN]	Not Active	Not Active
TRANSPLATIN	Not Active	Not Active
ZIRCONIUM(IV) CHLORIDE	Not Active	Not Active

System: not listed separately
Assay: DRUGMATRIX: Phosphodiesterase PDE3 enzyme inhibition (substrate: [3H]cAMP + cAMP)
Assay type: tissue-based, Homo sapiens
Settings: platelet; Not Active = under 50% inhibition at 10 µM

Compound	IC50	Ki
CCCCC(=O)N(Cc1ccc(-c2ccccc2-c2nnn[nH]2)cc1)[C@H](C(=O)O)C(C)C	Not Active	Not Active
O=C(O)COc1ccc(C(=O)c2cccs2)c(Cl)c1Cl	Not Active	Not Active
C[C@@](Cc1ccc(O)c(O)c1)(NN)C(=O)O.O [CARBIDOPA]	Not Active	Not Active
O=C(O)CCCCC1CCSS1 (stereo not drawn) [LIPOIC ACID, ALPHA]	Not Active	Not Active
CCCCCCCCNC(C)C(O)c1ccc(SC(C)C)cc1 (centres undefined) [SULOCTIDIL]	Not Active	Not Active
Cc1ccc(C(=O)c2ccc(CC(=O)O)n2C)cc1 [TOLMETIN]	Not Active	Not Active
TRANSPLATIN	Not Active	Not Active
ZIRCONIUM(IV) CHLORIDE	Not Active	Not Active

System: not listed separately
Assay: DRUGMATRIX: Interleukin IL-1 radioligand binding (ligand: [125I] interleukin 1beta)
Assay type: cell membranes, Membrane
Settings: nih3t3; Not Active = under 50% inhibition at 10 µM

Compound	IC50	Ki
CCCCC(=O)N(Cc1ccc(-c2ccccc2-c2nnn[nH]2)cc1)[C@H](C(=O)O)C(C)C	Not Active	Not Active
O=C(O)COc1ccc(C(=O)c2cccs2)c(Cl)c1Cl	Not Active	Not Active
C[C@@](Cc1ccc(O)c(O)c1)(NN)C(=O)O.O [CARBIDOPA]	Not Active	Not Active
O=C(O)CCCCC1CCSS1 (stereo not drawn) [LIPOIC ACID, ALPHA]	Not Active	Not Active
Cc1ccc(C(=O)c2ccc(CC(=O)O)n2C)cc1 [TOLMETIN]	Not Active	Not Active
TRANSPLATIN	Not Active	Not Active
ZIRCONIUM(IV) CHLORIDE	Not Active	Not Active
